Assay results taken from US12410179B2, “Modulators of TNF alpha activity and uses thereof” (RayThera, Inc., priority 2023, dated 2025).

target: TNFα (Homo sapiens, UniProt P01375); assay: HEK-Blue hTNFα reporter assay; format: cell-based; design: purchased R&D biosystem (R&D Systems) 210-TA-020/CF; conditions: HEK-Blue hTNFα reporter cells, SEAP readout; read-out: IC50 Range
How it was run: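 IC50 from 4-parameter regression of % inhibition, with OD620 of secreted SEAP (QUANTI-Blue, 1 h) referenced to cells with and without hTNFα. HEK-Blue TNFα reporter cells were exposed 24 h to compound premixed 1 h with hTNFα ([…]).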

Chain of TNFα (P01375 77-233 limits assumed): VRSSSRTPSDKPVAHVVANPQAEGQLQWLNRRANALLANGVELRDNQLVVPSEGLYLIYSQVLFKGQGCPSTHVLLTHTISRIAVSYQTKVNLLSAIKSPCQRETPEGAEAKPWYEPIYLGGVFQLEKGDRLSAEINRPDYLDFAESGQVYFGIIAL

| IC50 [nM] | SMILES |
| --- | --- |
| < 25 | [2H]C([2H])([2H])N1C(=O)c2cccc(OC)c2[C@H]2C[C@@H]1c1nn3ccc(-c4cnc(C5(N)CCC5)nc4)cc3c12 [Example 251] |
| < 25 | [2H]C([2H])([2H])N1C(=O)c2cccc(OC(F)F)c2[C@H]2C[C@@H]1c1nn3ccc(-c4cnc(C5(N)CCC5)nc4)cc3c12 [Example 248] |
| < 25 | [2H]C([2H])([2H])N1C(=O)c2cccc(OC(F)F)c2[C@H]2C[C@@H]1c1nn3ccc(-c4cnc([C@]5(N)C[C@@](C)(O)C5)c(F)c4)nc3c12 [Example 189] |
| < 25 | CN1C(=O)c2cccc(OC(F)F)c2[C@H]2C[C@@H]1c1nn3ccc(-c4cnc([C@]5(N)C[C@@H](O)C5)c(F)c4)cc3c12 [Example 168] |
| < 25 | CN1C(=O)c2cccc(OC(F)F)c2[C@H]2C[C@@H]1c1nn3ccc(-c4cnc(C5(N)COC5)nc4)cc3c12 [Example 49] |
| 100 to 1000 | [2H]C([2H])([2H])N1C(=O)c2cccc(OC(F)F)c2[C@H]2C[C@@H]1c1nn3ccc(-c4cnc([C@]5(C#N)C[C@@](C)(N)C5)nc4)nc3c12 [Example 232] |
| < 25 | [2H]C([2H])([2H])N1C(=O)c2cccc(OC(F)F)c2[C@H]2C[C@@H]1c1nn3ccc(-c4cnc([C@@](O)(CC#N)C(F)F)nc4)cc3c12 [Example 97] |
| < 25 | CN1C(=O)c2cccc(OC(F)F)c2[C@H]2C[C@@H]1c1nn3ccc(-c4cnc([C@@H](O)C(C)(C)O)nc4)cc3c12 [Example 134] |
| < 25 | CN1C(=O)c2cccc(OC(F)F)c2[C@H]2C[C@@H]1c1nn3ccc(-c4cnc([C@H](N)C5CC5)nc4)cc3c12 [Example 103] |
| < 25 | [2H]C([2H])([2H])N1C(=O)c2cccc(OC(F)F)c2[C@H]2C[C@@H]1c1nn3ccc(-c4cnc([C@]5(N)C[C@@](C)(CO)C5)nc4)cc3c12 [Example 269] |
| < 25 | [2H]C([2H])([2H])N1C(=O)c2cccc(OC(F)F)c2[C@H]2C[C@@H]1c1nn3ccc(-c4cnc(C5(N)CC5)nc4)nc3c12 [Example 238] |
| < 25 | CN1C(=O)c2cccc(OC(F)F)c2[C@H]2C[C@@H]1c1nn3ccc(-c4cnc([C@]5(O)CCOC5)nc4)cc3c12 [Example 63] |
| < 25 | CN1C(=O)c2cccc(OC(F)F)c2[C@H]2C[C@@H]1c1nn3cnc(-c4ccc(P(C)(C)=O)nc4)cc3c12 [Example 30] |
| < 25 | [2H]C([2H])([2H])N1C(=O)c2cccc(OC(F)F)c2[C@H]2C[C@@H]1c1nn3ccc(-c4cnc([C@]5(N)C[C@@](C)(O)C5)nc4C)cc3c12 [Example 281] |
| < 25 | [2H]C([2H])([2H])N1C(=O)c2cccc(OC(F)F)c2[C@H]2C[C@@H]1c1nn3ccc(-c4cnc(C5(N)CCC5)c(F)c4)cc3c12 [Example 250] |
| < 25 | [2H]C([2H])([2H])N1C(=O)c2cccc(OC(F)F)c2[C@H]2C[C@@H]1c1nn3ccc(-c4cnc(C5(N)CC5)cn4)cc3c12 [Example 266] |
| < 25 | C[C@@](O)(CC#N)c1ncc(-c2cc3c4c(nn3cc2F)[C@H]2C[C@@H]4c3c(OC(F)F)cccc3C(=O)N2)cn1 [Example 191] |
| < 25 | [2H]C([2H])([2H])N1C(=O)c2cccc(OC(F)F)c2[C@H]2C[C@@H]1c1nn3ccc(-c4cnc([C@]5(O)C[C@@](C)(N)C5)c(F)c4)cc3c12 [Example 246] |
| < 25 | [2H]C([2H])([2H])N1C(=O)c2cccc(OC(F)F)c2[C@H]2C[C@@H]1c1nn3ccc(-c4cnc(C5(N)CCC5)nc4)nc3c12 [Example 52] |
| < 25 | [2H]C([2H])([2H])N1C(=O)c2cccc(OC(F)F)c2[C@H]2C[C@@H]1c1nn3ccc(-c4cnc(C5(N)CCC5)nc4C)nc3c12 [Example 242] |
| < 25 | [2H]C([2H])([2H])N1C(=O)c2ccc(F)c(OC(F)F)c2[C@H]2C[C@@H]1c1nn3ccc(-c4cnc(C5(N)CCC5)nc4)nc3c12 [Example 282] |
| < 25 | [2H]C([2H])([2H])N1C(=O)c2cccc(OC(F)F)c2[C@H]2C[C@@H]1c1nn3ccc(-c4cnc([C@](C)(N)CC#N)nc4)cc3c12 [Example 264] |
| < 25 | CN1C(=O)c2cccc(OC(F)F)c2[C@H]2C[C@@H]1c1nn3ccc(-c4ncc([C@H](O)[C@@H]5CCO5)cn4)cc3c12 [Example 131] |
| < 25 | CN1C(=O)c2cccc(OC(F)F)c2[C@H]2C[C@@H]1c1nn3ccc(-c4cnc([C@]5(N)C[C@@](C)(CO)C5)nc4)nc3c12 [Example 10, (7R,14S)-12-(2-((1s,3R)-1-amino-3-(hydroxymethyl)-3-methylcyclobutyl)pyrimidin-5-yl)-1-(difluoromethoxy)-6-methyl-6,7-dihydro-7,14-methanobenzo[c]pyrimido[1′,2′:1,5]pyrazolo[4,3-f]azocin-5 (14H)-one] |
| < 25 | CN1C(=O)c2cccc(OC(F)F)c2[C@H]2C[C@@H]1c1nn3cc(F)c(-c4cnc([C@]5(N)C[C@@](C)(O)C5)nc4)cc3c12 [Example 36] |

| IC50 [nM] | SMILES |
| --- | --- |
| < 25 | CN1C(=O)c2cccc(OC(F)F)c2[C@H]2C[C@@H]1c1nn3ccc(-c4cnc([C@](C)(O)C(F)F)nc4)cc3c12 [Example 74] |
| < 25 | C[C@]1(C#N)C[C@](N)(c2ncc(-c3cc4c5c(nn4cc3F)[C@H]3C[C@@H]5c4c(OC(F)F)cccc4C(=O)N3)cc2F)C1 [Example 58] |
| 25 to 100 | [2H]C([2H])([2H])N1C(=O)c2cccc(OC(F)F)c2[C@H]2C[C@@H]1c1nn3cc(F)c(-c4cnc([C@]5(O)C[C@@](C)(N)C5)cn4)cc3c12 [Example 260] |
| < 25 | CN1C(=O)c2cccc(OC(F)F)c2[C@H]2C[C@@H]1c1nn3ccc(-c4ncc([C@@H](O)[C@@H]5CCO5)cn4)cc3c12 [Example 129] |
| < 25 | CN1C(=O)c2cccc(OC(F)F)c2[C@H]2C[C@@H]1c1nn3ccc(-c4ccc([C@]5(N)C[C@@](C)(C(=O)O)C5)c(F)c4)cc3c12 [Example 154] |
| < 25 | CN1C(=O)c2cccc(OC(F)F)c2[C@H]2C[C@@H]1c1nn3ccc(-c4cnc([C@@H](O)C5COC5)nc4)cc3c12 [Example 136] |
| < 25 | Cc1nc([C@]2(O)C[C@@](C)(O)C2)ncc1-c1ccn2nc3c(c2c1)[C@@H]1C[C@H]3N(C)C(=O)c2cccc(OC(F)F)c21 [Example 147] |
| < 25 | CN1C(=O)c2cccc(OC(F)F)c2[C@H]2C[C@@H]1c1nn3ccc(-c4cnc([C@@H](O)C(F)F)nc4)cc3c12 [Example 106] |
| < 25 | C[C@@](O)(CC#N)c1ncc(-c2ccn3nc4c(c3c2)[C@@H]2C[C@H]4NC(=O)c3cccc(OC(F)F)c32)cn1 [Example 163] |
| < 25 | [2H]C([2H])([2H])N1C(=O)c2cccc(OC(F)F)c2[C@H]2C[C@@H]1c1nn3cnc(-c4cnc(C5(N)CC5)nc4)cc3c12 [Example 245] |
| < 25 | [2H]C([2H])([2H])N1C(=O)c2cccc(OC(F)F)c2[C@H]2C[C@@H]1c1nn3cnc(-c4cnc([C@]5(N)C[C@@](C)(C#N)C5)c(F)c4)cc3c12 [Example 175] |
| < 25 | CN1C(=O)c2cccc(OC(F)F)c2[C@H]2C[C@@H]1c1nn3cc(F)c(-c4ccc(P5(=O)CCOCC5)nc4)cc3c12 [Example 161] |
| < 25 | [2H]C([2H])([2H])N1C(=O)c2cccc(OC(F)F)c2[C@H]2C[C@@H]1c1nn3ccc(-c4cnc(C5(N)COC5)cn4)cc3c12 [Example 247] |
| < 25 | CN1C(=O)c2cccc(OC(F)F)c2[C@H]2C[C@@H]1c1nn3ccc(-c4ncc([C@@H](O)[C@H]5CCO5)cn4)cc3c12 [Example 130] |
| < 25 | NC1(c2ncc(-c3ccn4nc5c(c4c3)[C@@H]3C[C@H]5NC(=O)c4cccc(OC(F)F)c43)cn2)CCC1 [Example 184] |
| 25 to 100 | CN1C(=O)c2ccc(OC(F)F)nc2[C@H]2C[C@@H]1c1nn3ccc(-c4cnc([C@]5(O)C[C@@](C)(O)C5)nc4)cc3c12 [Example 321, 2-(difluoromethoxy)-12-(2-((1s, 3s)-1,3-dihydroxy-3-methylcyclobutyl)pyrimidin-5-yl)-6-methyl-6,7-dihydro-7,14-methanopyrido[3,2-c]pyrido[1′,2′:1,5]pyrazolo[4,3-f]azocin-5 (14H)-one] |
| < 25 | CN1C(=O)c2cccc(OC(F)F)c2[C@H]2C[C@@H]1c1nn3ccc(-c4cnc([C@@]5(O)CCOC5)nc4)cc3c12 [Example 64] |
| < 25 | [2H]C([2H])([2H])N1C(=O)c2cccc(OC(F)F)c2[C@H]2C[C@@H]1c1nn3ccc(-c4cnc([C@]5(C#N)C[C@](C)(N)C5)nc4)cc3c12 [Example 280] |
| 100 to 1000 | CN1C(=O)c2cccc(OC(F)F)c2[C@H]2C[C@@H]1c1nn3ccc(-c4cnc([C@H](O)CN5CCC5)nc4)cc3c12 [Example 172] |
| < 25 | CN1C(=O)c2cccc(C3CC3)c2[C@H]2C[C@@H]1c1nn3ccc(-c4ccc(P(C)(C)=O)nc4)cc3c12 [Example 304] |
| < 25 | C[C@]1(C#N)C[C@](N)(c2ncc(-c3ccn4nc5c(c4c3)[C@@H]3C[C@H]5NC(=O)c4cccc(OC(F)F)c43)cn2)C1 [Example 195] |
| < 25 | [2H]C([2H])([2H])N1C(=O)c2cccc(C#N)c2[C@H]2C[C@@H]1c1nn3ccc(-c4cnc([C@]5(N)C[C@@](C)(O)C5)c(F)c4)cc3c12 [Example 309] |
| < 25 | CN1C(=O)c2cccc(OC(F)F)c2[C@H]2C[C@@H]1c1nn3cc(F)c(-c4cnc(C5(N)CCC5)nc4)cc3c12 [Example 41] |
| < 25 | [2H]C([2H])([2H])N1C(=O)c2cccc(OC(F)F)c2[C@H]2C[C@@H]1c1nn3ccc(-c4cnc(C5(O)COC5)nc4)cc3c12 [Example 153] |
| < 25 | CN1C(=O)c2cccc(OC(F)F)c2[C@H]2C[C@@H]1c1nn3ccc(-c4ncc([C@@H](O)C5COC5)cn4)cc3c12 [Example 107] |

same assay, conditions: HEK-Blue hTNFα reporter cells; read-out: TNFα reporter, Emax

| Emax [%] | SMILES |
| --- | --- |
| 93 | CN1C(=O)c2cccc(OC(F)F)c2[C@H]2C[C@@H]1c1nn3ccc(-c4cnc([C@]5(N)C[C@@](C)(CO)C5)nc4)nc3c12 [Example 10, (7R,14S)-12-(2-((1s,3R)-1-amino-3-(hydroxymethyl)-3-methylcyclobutyl)pyrimidin-5-yl)-1-(difluoromethoxy)-6-methyl-6,7-dihydro-7,14-methanobenzo[c]pyrimido[1′,2′:1,5]pyrazolo[4,3-f]azocin-5 (14H)-one] |
| 70 | CN1C(=O)c2cccc(OC(F)F)c2[C@H]2C[C@@H]1c1nc3ccc(-c4cnc(C5(O)CCOCC5)nc4)cc3n12 [Comp. Ex #3, reference compound] |

same assay, conditions: HEK-Blue hTNFα reporter cells; read-out: TNFα reporter, IC50

| IC50 [nM] | SMILES |
| --- | --- |
| 12.7 | CN1C(=O)c2cccc(OC(F)F)c2[C@H]2C[C@@H]1c1nn3ccc(-c4cnc([C@]5(N)C[C@@](C)(CO)C5)nc4)nc3c12 [Example 10, (7R,14S)-12-(2-((1s,3R)-1-amino-3-(hydroxymethyl)-3-methylcyclobutyl)pyrimidin-5-yl)-1-(difluoromethoxy)-6-methyl-6,7-dihydro-7,14-methanobenzo[c]pyrimido[1′,2′:1,5]pyrazolo[4,3-f]azocin-5 (14H)-one] |
| 8.2 | CN1C(=O)c2cccc(OC(F)F)c2[C@H]2C[C@@H]1c1nc3ccc(-c4cnc(C5(O)CCOCC5)nc4)cc3n12 [Comp. Ex #3, reference compound] |
